ChEMBL document CHEMBL1201862, “PubChem BioAssay data set” (2004)
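Cells were grown in 96-well plates and exposed to each compound for 48 hours at five concentrations; endpoints were interpolated linearly between bracketing concentrations, or set to the highest concentration if not reached. Abbreviation: GI50, concentration required for 50% inhibition of growth.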 Active and inactive are the calls of the source. Cut-off read from the data, not from the text of the source: active = GI50 up to about 1.1 µM and inactive = higher.

Experiments:
Experiment in all cases: inhibition of tumour cell growth, NCI panel, 48 h
LXFL 529 = system: LXFL 529
SF-539 = system: SF-539
CCRF-CEM = system: CCRF-CEM
HT-29 = system: HT-29
EKVX = system: EKVX
MOLT-4 = system: MOLT-4
UACC-257 = system: UACC-257
M14 = system: M14
A498 = system: A498
UACC-62 = system: UACC-62
SNB-19 = system: SNB-19
RXF 393 = system: RXF 393
DLD-1 = system: DLD-1
COLO 205 = system: COLO 205
SK-MEL-2 = system: SK-MEL-2
LOX IMVI = system: LOX IMVI
NCI-H226 = system: NCI-H226
U-251 = system: U-251
SNB-78 = system: SNB-78
HOP-62 = system: HOP-62
SNB-75 = system: SNB-75
XF498 = system: XF498
OVCAR-4 = system: OVCAR-4
HL-60 = system: HL-60
ACHN = system: ACHN
M19-MEL = system: M19-MEL
NCI-H460 = system: NCI-H460
DMS-114 = system: DMS-114
HCT-15 = system: HCT-15
SN12C = system: SN12C
NCI-H23 = system: NCI-H23
Malme-3M = system: Malme-3M
UO-31 = system: UO-31
SR = system: SR
HCC 2998 = system: HCC 2998
HOP-92 = system: HOP-92
SK-MEL-5 = system: SK-MEL-5
SK-OV-3 = system: SK-OV-3
OVCAR-3 = system: OVCAR-3
IGROV-1 = system: IGROV-1
KM-20L2 = system: KM-20L2
OVCAR-8 = system: OVCAR-8
SW-620 = system: SW-620
OVCAR-5 = system: OVCAR-5
A549 = system: A549
K562 = system: K562
SF-268 = system: SF-268
HCT-116 = system: HCT-116
SK-MEL-28 = system: SK-MEL-28
RPMI-8226 = system: RPMI-8226
KM12 = system: KM12
SF-295 = system: SF-295
HOP-18 = system: HOP-18
TK-10 = system: TK-10
DMS-273 = system: DMS-273
CAKI-1 = system: CAKI-1
786-0 = system: 786-0
RXF 631 = system: RXF 631

Measured: GI50

COc1cc2c(OC)cc1CSCc1sc(C)c(c1Br)CSC2
> 100 µM: HCT-15
inactive: LXFL 529 > 100 µM | SF-539 > 100 µM | CCRF-CEM > 100 µM | HT-29 > 100 µM | EKVX > 100 µM | MOLT-4 > 100 µM | UACC-257 > 100 µM | M14 > 100 µM | A498 > 100 µM | UACC-62 > 100 µM | SNB-19 > 100 µM | RXF 393 > 100 µM | DLD-1 > 100 µM | COLO 205 > 100 µM | SK-MEL-2 > 100 µM | LOX IMVI > 100 µM | NCI-H226 > 100 µM | U-251 > 100 µM | SNB-78 > 100 µM | HOP-62 > 100 µM | SNB-75 74.1 µM | XF498 > 100 µM | OVCAR-4 > 100 µM | HL-60 69.3 µM | ACHN > 100 µM | M19-MEL > 100 µM | NCI-H460 > 100 µM | DMS-114 > 100 µM | SN12C > 100 µM | NCI-H23 > 100 µM | Malme-3M > 100 µM | UO-31 > 100 µM | SR 4.16 µM | HCC 2998 > 100 µM | HOP-92 > 100 µM | SK-MEL-5 > 100 µM | SK-OV-3 > 100 µM | OVCAR-3 > 100 µM | IGROV-1 > 100 µM | KM-20L2 > 100 µM | OVCAR-8 > 100 µM | SW-620 > 100 µM | OVCAR-5 > 100 µM | A549 > 100 µM | K562 > 100 µM | SF-268 > 100 µM | HCT-116 > 100 µM | SK-MEL-28 > 100 µM | RPMI-8226 > 100 µM | KM12 > 100 µM | SF-295 > 100 µM | HOP-18 > 100 µM | TK-10 > 100 µM | DMS-273 > 100 µM | CAKI-1 > 100 µM | 786-0 > 100 µM | RXF 631 > 100 µM
